Here are results for 41 compounds from patent US20240190855A1 (Relay Therapeutics, Inc., priority 2021, published 2024).

Experiment [1] concerns the target target tagged with nanoLuciferase in 293-NB2 cells (Homo sapiens, UniProt P24941). Kind of experiment: nanoBRET TE Intracellular Kinase Assay (Cell nanoBRET Assay). The experiment is classed as cell-based. As to the method:
Compounds described herein were also tested in a nanoBRET TE Intracellular Kinase Assay. Test compounds were prepared in a DMSO stock solution. 45 uL of stock solution was transferred to a 384 well plate (Greiner, 781201), and a 3-fold 11-point dilution was performed. 293-NB2 cells expressing target tagged with nanoLuciferase were diluted in cell growth media (DMEM+10% FBS+1% Pen/Strep media) and a 40 uL cell solution of 7.5E4 cells/mL was seeded in a separate 384 well cell culture plate and incubated overnight at 37° C./5% CO2/100% humidity. […] 80 nL of each concentration of compound was transferred from the compound plate to a corresponding well in the cell culture plate by Echo550 liquid handler. The plates were incubated for 2 hrs at 37° C./5% CO2/100% humidity. […] Chemiluminescence was then read on an EnVision reader (PerkinElmer).
On the technique in general: BRET reads energy transfer from a luciferase to a nearby fluorophore.

Experiment [2] has as its target T1, CDK2/Cyclin E complex (Homo sapiens, UniProt P24941).
T1 construct: purchased Eurofins 14-475
Kind of experiment: CDK2/Cyclin E fluorescence-based microfluidic mobility shift assay (CDK2 Biochemical Caliper Assay). The conditions noted are these: read-out: Biochemical CDK2/CyclinE Caliper IC50. The method, boiled down: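 Wild-type CDK2/Cyclin E was preincubated with compound and ATP for 30 min at RT before the 5-FAM-QSPKKG peptide was added. Final concentrations were 0.1 nM enzyme, 2000 uM ATP, 1.5 uM peptide and 1% DMSO. After 20 hr at RT and EDTA stop, substrate conversion was read by microfluidic mobility shift over an 11-point, 3-fold dilution series.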

For experiment [3], the system named is CDK2-independent (SKOV3, COV504, COV644) versus CDK2-dependent (COV318, OVCAR3, HCC1569) cell lines. Kind of experiment: Cell proliferation selectivity assay (CyQUANT Direct Cell Proliferation Assay). As to conditions: mean of IC50 ratios between each CDK2-independent versus CDK2-dependent cell line; 120 hours incubation. The experiment is classed as cell-based. The procedure: Compounds described herein were also tested in cell proliferation selectivity assays. OVCAR3, HCC1569, and SKOV3 cell lines were obtained from ATCC and cultured as recommended by supplier. COV318, COV504, and COV644 cell lines were obtained from Sigma-Aldrich and were cultured as recommended by supplier. The genetic background and dependency of each cell line was determined using publicly available databases: cBioPortal and DepMap. […] All six cell lines are CDK1-dependent given that CDK1 is an essential gene. Proliferation assay was carried out by seeding cells into 384-well plates at predetermined density (ranging from 150 to 1500 cells per well) in corresponding culture media, followed by brief centrifugation at 1000×g, and culturing cells for 24 hours at 37° C., 5% CO2. The following day, compounds were serially diluted (1l-point, 3-fold dilution scheme with 20 μM as top concentration) and dispensed directly onto cells using Echo 555 acoustic liquid handler (Labcyte). The cells were incubated with the compounds at 37° C., 5% CO2 for 120 hours. Relative number of viable cells in each well was determined using CyQUANT Direct Cell Proliferation Assay Kit (Invitrogen) per manufacturers protocol. The plates were read on EnVision 2105 multimode plate reader (Perkin Elmer) using FITC filter set. Dose response curve fitting and IC50 calculation was done using Genedata Screener software. Proliferation selectivity (i.e. selectivity index) for individual compound was derived as a mean of its IC50 ratios between each CDK2-independent versus CDK2-dependent cell line.

Each structure is given as a SMILES string.

With `Cc1cc(CC(=O)Nc2cc([C@H]3CC[C@@H](OC(N)=O)C3)[nH]n2)on1` (racemic) [Example 4], the IC50 lay in the range of 1000 to 100000 nM in experiment [1] and 250 to 1000 nM in experiment [2].

Turning to `Cc1cc(CC(=O)Nc2cc([C@@H]3CCC[C@H](OC(=O)NC4(C)CC4)CC3)[nH]n2)on1` (single isomer, unassigned) [Example 24], the figures for the IC50 in experiment [1] and in experiment [2] were 250 to 1000 nM and 100 to 250 nM, respectively.

Turning to `Cc1cc(CC(=O)Nc2cc([C@H]3CC[C@@H](CC(=O)NC4(C)CC4)C3)[nH]n2)on1` (single isomer, unassigned) [Example 28], the IC50 in experiment [1] and in experiment [2] was 1000 to 100000 nM each time.

Consider `Cc1cc(CC(=O)Nc2cc([C@@H]3CC[C@@H](CC(=O)NC4(C)CC4)C3)[nH]n2)on1` (single isomer, unassigned) [Example 31], for which the IC50 in experiment [1] and in experiment [2] was 1000 to 100000 nM each time.

In the case of `Cc1cc(CC(=O)Nc2ncn([C@@H]3CC[C@H](OC(=O)NC4(C)CC4)C3)n2)on1` (single isomer, unassigned) [Example 40], the IC50 in experiment [1] and in experiment [2] was 1000 to 100000 nM each time.

As for `C=C(C)c1ccncc1O[C@@H]1CC[C@H](c2cc(NC(=O)Cc3cc(C)no3)n[nH]2)C1` (single isomer, unassigned) [Example 57], the IC50 in experiment [1] and in experiment [2] was not above 100 nM in each case.

Take `C=C(C)c1ccncc1O[C@H]1CC[C@@H](c2cc(NC(=O)Cc3cc(C)no3)n[nH]2)C1` (single isomer, unassigned) [Example 58]: the IC50 in experiment [1] and in experiment [2] was not above 100 nM throughout.

For `Cc1cc(CC(=O)Nc2cc([C@H]3CC[C@@H](NC(=O)NC(C)C)C3)[nH]n2)on1` (single isomer, unassigned) [Example 83], the IC50 in experiment [1] and in experiment [2] was 1000 to 100000 nM throughout.

As for `Cc1cc(CC(=O)Nc2cc([C@H]3CC[C@@H](N4CC(C)(C)NC4=O)C3)[nH]n2)on1` (single isomer, unassigned) [Example 91], the values for the IC50 in experiment [1] and in experiment [2] were 1000 to 100000 nM and not above 100 nM, respectively.

Consider `Cc1cc(CC(=O)Nc2cc([C@@H]3CC[C@H](NC(=O)NC(C)C)C3)[nH]n2)on1` (single isomer, unassigned) [Example 102], for which the IC50 in experiment [1] and in experiment [2] was 1000 to 100000 nM in each case.

For the compound `Cc1cc(CC(=O)Nc2cc([C@H]3CC[C@@H](N4CC(C)(C)NC4=O)C3)[nH]n2)on1` (single isomer, unassigned) [Example 117], the IC50 in experiment [1] was 1000 to 100000 nM; in experiment [2], not above 100 nM.

Turning to `Cc1cc(CC(=O)Nc2cc([C@H]3CC[C@@H](Oc4nnccc4C)C3)[nH]n2)on1` (single isomer, unassigned) [Example 119], the values for the IC50 in experiment [1] and in experiment [2] were 250 to 1000 nM and not above 100 nM, respectively.

On to `CC(C)NC(=O)O[C@@H]1CC[C@H](c2cc(NC(=O)c3ccnn3C)n[nH]2)C1` [Example 5], for which the IC50 in experiment [1] and in experiment [2] was not above 100 nM each time.

`CC(C)NC(=O)O[C@H]1CC[C@@H](c2cc(NC(=O)c3ccnn3C)n[nH]2)C1` [Example 6]: the IC50 was 100 to 250 nM in experiment [1] and not above 100 nM in experiment [2].

Take `CC1(NC(=O)O[C@@H]2CC[C@H](c3cc(NC(=O)Cc4ccccc4)n[nH]3)C2)CC1` [Example 7]: the IC50 in experiment [1] and in experiment [2] was not above 100 nM in each case.

For `COCc1cc(C(=O)Nc2cc([C@@H]3CC[C@H](OC(=O)N(C)C(C)C)C3)[nH]n2)n(C)n1` [Example 8], the values for the IC50 in experiment [1] and in experiment [2] were 100 to 250 nM and not above 100 nM, respectively.

Regarding `CC1(NC(=O)O[C@H]2CC[C@@H](c3cc(NC(=O)Cc4ccccc4)n[nH]3)C2)CC1` [Example 9], the IC50 in experiment [1] and in experiment [2] was not above 100 nM each time.

Consider `CC(C)NC(=O)O[C@@H]1CC[C@H](c2cc(NC(=O)Cc3ccccc3)n[nH]2)C1` [Example 12], for which the IC50 was 100 to 250 nM in experiment [1] and not above 100 nM in experiment [2].

As for `CC(C)NC(=O)O[C@@H]1CC[C@H](c2cc(NC(=O)c3ccnc4ncsc34)n[nH]2)C1` [Example 13], the IC50 in experiment [1] and in experiment [2] was not above 100 nM in each case.

On to `CC(C)NC(=O)O[C@@H]1CC[C@H](c2cc(NC(=O)Cc3ccccc3S(C)(=O)=O)n[nH]2)C1` [Example 14], for which the IC50 is 100 to 250 nM in experiment [1] and not above 100 nM in experiment [2].

As to `Cc1cc(C(=O)Nc2cc([C@H]3CC[C@@H](OC(=O)NC(C)C)C3)[nH]n2)on1` [Example 17], the figures for the IC50 in experiment [1] and in experiment [2] were 1000 to 100000 nM and not above 100 nM, respectively.

As to `CC(C)NC(=O)O[C@@H]1CC[C@H](c2cc(NC(=O)Cc3ccnn3C)n[nH]2)C1` [Example 18], the IC50 in experiment [1] was 250 to 1000 nM; in experiment [2], not above 100 nM.

With `CC(C)NC(=O)O[C@@H]1CC[C@H](c2cc(NC(=O)c3c[n+](C(C)(C)C)nn3C)n[nH]2)C1` [Example 19], the IC50 fell in the range of 1000 to 100000 nM in experiment [1] and 250 to 1000 nM in experiment [2].

Turning to `Cc1cc(CC(=O)Nc2cc([C@H]3CC[C@@H](OC(=O)NCCC(C)(C)O)C3)[nH]n2)on1` [Example 23], the values for the IC50 in experiment [1] and in experiment [2] were 1000 to 100000 nM and 100 to 250 nM, respectively.

Consider `CC(C)NC(=O)O[C@@H]1CC[C@H](c2cc(NC(=O)Cn3nnc4ccccc4c3=O)n[nH]2)C1` [Example 41], for which the IC50 in experiment [1] is 1000 to 100000 nM; in experiment [2], not above 100 nM.

As to `CNC(=O)O[C@@H]1CC[C@H](c2cc(NC(=O)Cc3cc(C)no3)n[nH]2)C1` [Example 42], the IC50 in experiment [1] is 1000 to 100000 nM; in experiment [2], 100 to 250 nM.

Turning to `Cc1cc(CC(=O)Nc2cc([C@H]3CC[C@@H](C(=O)NC(C)C)CC3)[nH]n2)on1` [Example 55], the IC50 in experiment [1] and in experiment [2] was 1000 to 100000 nM each time.

Turning to `Cc1cc(CC(=O)Nc2cc([C@H]3CC[C@H](C(=O)NC(C)C)CC3)[nH]n2)on1` [Example 56], the IC50 in experiment [1] and in experiment [2] was 1000 to 100000 nM in each case.

For `CC(C)NC(=O)OC[C@H]1C[C@@H](c2cc(NC(=O)c3cc(COC(F)(F)F)nn3C)n[nH]2)C1` [Example I-27], the “Proliferation selectivity Index” value in experiment [3] is 18.56.

On to `COCc1cc2c(Nc3cc([C@H]4C[C@@H](OC(=O)NC(C)(C)C#N)CO4)[nH]n3)nccn2n1` [Example I-29], for which, in experiment [3], the “Proliferation selectivity Index” value turned out to be 18.45.

Consider `Cn1nc(OCC(F)F)cc1C(=O)Nc1cc([C@H]2C[C@@H](OC(=O)NC34CC(C3)C4)CO2)[nH]n1` [Example I-30], for which the “Proliferation selectivity Index” value in experiment [3] came to 18.27.

With `CC1(NC(=O)O[C@H]2CO[C@@H](c3cc(Nc4nccc5nccn45)n[nH]3)C2)CC1` [Example I-31], the “Proliferation selectivity Index” value in experiment [3] amounted to 17.88.

With `CC(C)NC(=O)O[C@@H]1CO[C@H](c2cc(Nc3nccc4ncsc34)n[nH]2)C1` [Example I-32], the “Proliferation selectivity Index” value in experiment [3] is listed as 17.60.

Take `CCC1(NC(=O)O[C@H]2CO[C@@H](c3cc(Nc4nccn5nc(COC)cc45)n[nH]3)C2)CC1` [Example I-35]: the “Proliferation selectivity Index” value in experiment [3] stood at 17.20.

Turning to `C#CC1(NC(=O)O[C@H]2CO[C@@H](c3cc(Nc4nccn5nc(COC)cc45)n[nH]3)C2)CC1` [Example I-36], the “Proliferation selectivity Index” value in experiment [3] is 16.79.

For `COCc1cc2c(Nc3cc([C@H]4C[C@@H](Oc5nncn5C5(C(F)(F)F)CC5)CO4)[nH]n3)nccn2n1` [Example I-37], in experiment [3], the “Proliferation selectivity Index” value is recorded as 16.55.

With `COCc1cc2c(Nc3cc([C@H]4C[C@@H](OC(=O)NC(C)C)CO4)[nH]n3)nccn2n1` [Example I-38], the “Proliferation selectivity Index” value in experiment [3] is 16.55.

Take `CC(C)n1cnnc1OC[C@H]1C[C@@H](c2cc(Nc3nccn4nccc34)n[nH]2)C1` [Example I-39]: in experiment [3], the “Proliferation selectivity Index” value is 16.17.

As to `COCc1cc2c(Nc3cc([C@@H]4C[C@H](Oc5nncn5C5(C)CC5)CO4)[nH]n3)nccn2n1` [Example I-40], in experiment [3], the “Proliferation selectivity Index” value is listed as 16.06.

With `CC(C)NC(=O)O[C@H]1CO[C@@H](c2cc(Nc3nccc4ncsc34)n[nH]2)C1` [Example I-41], the “Proliferation selectivity Index” value in experiment [3] was determined as 15.98.

Take `COCc1cc2c(Nc3cc([C@H]4C[C@@H](OC(=O)NC(C)(C)C(F)(F)F)CO4)[nH]n3)nccn2n1` [Example I-42]: the “Proliferation selectivity Index” value in experiment [3] is reported as 15.77.
